These results are taken from patent US20180000952A1, “ENZYME AND RECEPTOR MODULATION” (GlaxoSmithKline Intellectual Property Development Limited, priority 2005, published 2018).

Like-named read-outs stand apart in the source and are kept apart here.

For one series, the target named is T1, recombinant human DHFR (Homo sapiens, UniProt P00374).
T1 construct: purchased Sigma CS0340
T1 sequence (P00374 1-187): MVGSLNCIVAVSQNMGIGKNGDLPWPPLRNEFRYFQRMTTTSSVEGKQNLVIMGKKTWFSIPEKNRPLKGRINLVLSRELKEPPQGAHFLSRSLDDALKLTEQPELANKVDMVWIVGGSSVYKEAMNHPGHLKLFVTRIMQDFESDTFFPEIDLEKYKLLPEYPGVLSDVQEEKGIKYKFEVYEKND
The series is described as follows: Dihydrofolate reductase (DHFR) inhibitory activity assay. The format is biochemical. The protocol:
The ability of compounds to inhibit DHFR activity was measured in an assay based on the ability of DHFR to catalyse the reversible NADPH-dependent reduction of dihydrofolic acid to tetrahydrofolic acid using a Sigma kit (Catalogue number CS0340). This uses proprietary assay buffer and recombinant human DHFR at 7.5×10^−4 Unit per reaction, NADPH at 60 μM and dihydrofolic acid at 50 μM. The reaction was followed by monitoring the decrease in absorbance at 340 nm, for a 2 minute period, at room temperature, and the enzyme activity was calculated as the rate of decrease in absorbance. Enzyme activity, in the presence of inhibitor, was expressed as a percentage of inhibitor-free activity and the inhibitor IC50 was determined from a sigmoidal dose response curve using XIfit software (% activity against log concentration of compound). Each sample was run in triplicate and each dose response curve was composed of 10 dilutions of the inhibitor.

A further series has as its system HCT 116 cells. Briefly: Cell proliferation inhibition assay (WST-1), HCT116. Type of series: cell-based. The conditions noted are these: for Ratio IC50 Cell/enzyme (HCT116), Table 2: HCT116 cell IC50 / DHFR enzyme IC50. How it is done:
(§1) Following 24 h of growth cells were treated with compound. Plates were then re-incubated for a further 72-96 h before a WST-1 cell viability assay was conducted according to the suppliers (Roche Applied Science) instructions
(§2) Data were expressed as a percentage inhibition of the control, measured in the absence of inhibitor, as follows;—
(§3) where S^l is the signal in the presence of inhibitor and S^o is the signal in the presence of DMSO.
(§4) Dose response curves were generated from 8 concentrations (top final concentration 10 μM, with 3-fold dilutions), using 6 replicates.

The next series deals with U937 cells. The series is described as follows: Cell proliferation inhibition assay (WST-1), U937. The format is cell-based. Conditions: for selectivity between a monocytic and non-monocytic cell line (cell proliferation): U937 versus HCT116; for Ratio IC50 cell/enzyme (Aurora kinase): U937 cell IC50 / Aurora kinase A IC50. How it is done:
as §1, §2, §3, §4
Background: Formazan colour is commonly taken as a measure of viable cells.

The test system of series [1] is U937 cell extract (esterase activity). Briefly: Broken cell carboxylesterase assay, U937 cell extract. Type of series: in vitro ADME. Conditions: U937 versus HCT116 broken cell assay. The protocol:
U937 or HCT 116 tumour cells (˜10^9) were washed in 4 volumes of Dulbeccos PBS (˜1 litre) and pelleted at 525 g for 10 min at 4° C. This was repeated twice and the final cell pellet was resuspended in 35 ml of cold homogenising buffer (Trizma 10 mM, NaCl 130 mM, CaCl2 0.5 mM pH 7.0 at 25° C.). Homogenates were prepared by nitrogen cavitation (700 psi for […] at 4° C.). The homogenate was kept on ice and supplemented with a cocktail of Inhibitors at final concentrations of: • Leupeptin 1 μM • Aprotinin 0.1 μM • E64 8 μM • Pepstatin 1.5 μM • Bestatin 162 μM • Chymostatin 33 μM
After clarification of the cell homogenate by centrifugation at 525 g for 10 min, the resulting supernatant was used as a source of esterase activity and was stored at −80° C. until required.
Hydrolysis of esters to the corresponding carboxylic acids can be measured using the cell extract, prepared as above. To this effect cell extract (˜30 μg/total assay volume of 0.5 ml) was incubated at 37° C. in a Tris-HCl 25 mM, 125 mM NaCl buffer, pH 7.5 at 25° C. At zero time the ester (substrate) was then added at a final concentration of 2.5 μM and the samples were incubated at 37° C. for the appropriate time (usually 0 or 80 min). […] After centrifugation at 12000 g for 5 min, samples were analysed for the ester and its corresponding carboxylic acid at room temperature by LCMS (Sciex API 3000, HP1100 binary pump, CTC PAL). […]

Series [2] relates to TNFα production in human whole blood. The series is described as follows: LPS-stimulation of human whole blood, TNF-α ELISA. The conditions noted are these: for Ratio IC50 WB/enzyme (P38 MAP kinase): whole blood IC50 / P38 MAP kinase IC50; for Ratio IC50 WB/enzyme (PI 3-Kinase): whole blood IC50 / PI3-Kinase IC50. Type of series: cell-based. The protocol:
Whole blood was taken by venous puncture using heparinised vacutainers (Becton Dickinson) and diluted in an equal volume of RPMI1640 tissue culture media. 100 μl was plated in V-bottomed 96 well tissue culture plates. Inhibitor was added in 100 μl of RPMI1640 media, and 2 h later the blood was stimulated with LPS (E coli strain 005:B5, Sigma) at a final concentration of 100 ng/ml and incubated at 37° C. in 5% CO2 for 6 h. TNF-α levels were measured from cell-free supernatants by sandwich ELISA (R&D Systems #QTA00B).
In general terms: In an ELISA, binding on a coated surface is turned into a signal by an enzyme label.

The mark [3] stands for this setting: compound as shown (ester or unmodified modulator, or named acid), read-out: IC50 nM enzyme (DHFR).
Where [4] appears, read: enzyme IC50 for the acid resulting from cleavage of the ester shown, read-out: IC50 nM enzyme (acid), figures in brackets.

Consider `Cc1c(CNc2ccc(OCCC(N)C(=O)OC3CCCC3)cc2)cnc2nc(N)nc(N)c12` (stereo not drawn), for which the IC50 at recombinant human DHFR (setting [3]) was determined as 2700 nM; at recombinant human DHFR (setting [4]) it was 11 nM. Moreover, the “Ratio IC50 Cell/enzyme (HCT116), Table 2” value in the series with HCT 116 cells was found to be 14.
With `Cc1c(CNc2ccc(OCCC(NC3CCCCC3)C(=O)OC3CCCC3)cc2)cnc2nc(N)nc(N)c12` (stereo not drawn), the IC50 at recombinant human DHFR (setting [3]) is 1030 nM; at recombinant human DHFR (setting [4]), 25 nM. Further, the “Ratio IC50 Cell/enzyme (HCT116), Table 2” value in the series with HCT 116 cells turned out to be 66.
In the case of `Cc1c(CNc2ccc(CNC(CC(C)C)C(=O)OC3CCCC3)cc2)cnc2nc(N)nc(N)c12` (stereo not drawn), the results for the IC50 at recombinant human DHFR (setting [3]) and at recombinant human DHFR (setting [4]) were 4000 nM and 10 nM, respectively. In the series with HCT 116 cells, the “Ratio IC50 Cell/enzyme (HCT116), Table 2” value was 17.
For `Cc1c(CNc2ccc(C(=O)NC(CC(C)C)C(=O)OC3CCCC3)cc2)cnc2nc(N)nc(N)c12` (stereo not drawn), the results for the 50% inhibitory concentration (IC50) on recombinant human DHFR (setting [3]) and at recombinant human DHFR (setting [4]) were 1700 nM and 8 nM, respectively.
With `COc1cc(NCc2cnc3nc(N)nc(N)c3c2C)cc(OC)c1OC` [Compound (2 G=N), 5-Methyl-6-((3,4,5-trimethoxyphenylamino)methyl)pyrido[2,3-d]pyrimidine-2,4-diamine, reference compound], at recombinant human DHFR (setting [3]), the concentration for half-maximal inhibition (IC50) came out at 10 nM.
Turning to `Cc1c(CNc2ccc(OCC[C@H](NC3CCCCC3)C(=O)OC3CCCC3)cc2)cnc2nc(N)nc(N)c12` [Compound (4), (S)-2-Cyclohexylamino-4-{4-[(2,4-diamino-5-methyl-pyrido[2,3-d]pyrimidin-6-ylmethyl)-amino]-phenoxy}-butyric acid cyclopentyl ester], the “selectivity between a monocytic and non-monocytic cell line (cell proliferation)” value with U937 cells was “significantly more anti-proliferative in monocytic cell lines”. Moreover, the “cleavage of the ester in monocytic versus non-monocytic cell lines” value in series [1] was “selective cleavage in monocytic but not non-monocytic cell lines”.
Consider `Cc1c(CNc2ccc(CN[C@@H](CC(C)C)C(=O)OC3CCCC3)cc2)cnc2nc(N)nc(N)c12` [Compound (5), (S)-2-{4-[(2,4-Diamino-5-methyl-pyrido[2,3-d]pyrimidin-6-ylmethyl)-amino]-benzylamino}-4-methyl-pentanoic acid cyclopentyl ester], for which the “selectivity between a monocytic and non-monocytic cell line (cell proliferation)” value in the series on U937 cells is given as “significantly more anti-proliferative in monocytic cell lines”. Moreover, the “cleavage of the ester in monocytic versus non-monocytic cell lines” value in series [1] is recorded as “selective cleavage in monocytic but not non-monocytic cell lines”.
With `Cc1c(CNc2ccc(C(=O)N[C@@H](CC(C)C)C(=O)OC3CCCC3)cc2)cnc2nc(N)nc(N)c12` [Compound (6), (S)-2-{4-[(2,4-Diamino-5-methyl-pyrido[2,3-d]pyrimidin-6-ylmethyl)-amino]-benzoylamino}-4-methyl-pentanoic acid cyclopentyl ester], the half-inhibitory concentration (IC50) at recombinant human DHFR (setting [3]) turned out to be 1700 nM. For the same compound, the “fold more potent in U937 cells than the unmodified analogue (2 G=N)” value with U937 cells (U937 cells, versus (2 G=N)) turned out to be 100 fold. Moreover, the “fold more potent in the HCT116 than the unmodified analogue (2 G=N)” value in the series with HCT 116 cells (HCT116, versus (2 G=N)) was determined as 15 fold.
With `COc1cc2nccc(Oc3ccc(NC(=O)c4ccccc4)cc3)c2cc1OC` [Compound (11), N-{4-(7-methoxy-6-methoxy-quinoline-4-yloxy)-phenyl}-benzamide, reference compound], in the series on U937 cells, the “Ratio IC50 cell/enzyme (Aurora kinase)” value came to 1.3.
As to `COc1cc2c(Oc3ccc(NC(=O)c4ccccc4)cc3)ccnc2cc1OCC[C@H](N)C(=O)OC1CCCC1` [Compound (12), (S)-2-amino-4-[4-(4-benzoylamino-phenoxy)-6-methoxy-quinolin-7-yloxy]-butyric acid cyclopentyl ester], the “Ratio IC50 cell/enzyme (Aurora kinase)” value in the series on U937 cells was determined as 0.0015.
For `COc1cc2c(Oc3ccc(NC(=O)c4ccccc4)cc3)ccnc2cc1OCC[C@H](N)C(=O)OC(C)(C)C` [Compound (14), (S)-2-Amino-4-[4-(4-benzoylamino-phenoxy)-6-methoxy-quinolin-7-yloxy]-butyric acid tert-butyl ester], the “Ratio IC50 cell/enzyme (Aurora kinase)” value in the series with U937 cells was 0.025.
With `Nc1c(C(=O)c2ccc(F)cc2F)ccc(=O)n1-c1c(F)cccc1F` [Compound (15), 6-Amino-5-(2,4-difluoro-benzoyl)-1-(2,6-difluoro-phenyl)-1H-pyridin-2-one, reference compound], the “Ratio IC50 WB/enzyme (P38 MAP kinase)” value in series [2] turned out to be 6.
Same read-out and setting: the result for `CC(C)(C)OC(=O)[C@@H](N)CCOc1cc(F)c(-n2c(N)c(C(=O)c3ccc(F)cc3F)ccc2=O)c(F)c1` [Compound (18), (S)-2-Amino-4-{4-[6-amino-5-(2,4-difluoro-benzoyl)-2-oxo-2H-pyridin-1-yl]-3,5-difluoro-phenoxy}-butyric acid tert-butyl ester] reads 18.
`Cc1c(CNc2ccc(C(=O)N[C@@H](CC(C)C)C(=O)O)cc2)cnc2nc(N)nc(N)c12` [Compound (19), (S)-2-(4-((2,4-diamino-5-methylpyrido[2,3-d]pyrimidin-6-yl)methylamino)benzamido)-4-methylpentanoic acid]: the half-inhibitory concentration (IC50) at recombinant human DHFR (setting [3]) was determined as 10 nM.
With `CC(=O)Nc1nc(C)c(-c2ccc(Cl)c(S(C)(=O)=O)c2)s1` [Compound (20), N-[5-(4-Chloro-3-methanesulfonyl-phenyl)-4-methyl-thiazol-2-yl]-acetamide, reference compound], the “Ratio IC50 WB/enzyme (PI 3-Kinase)” value in series [2] was 17.
As to `Cc1nc(NC(=O)CC[C@H](N)C(=O)OC2CCCC2)sc1-c1ccc(Cl)c(S(C)(=O)=O)c1` [Compound (21), (S)-2-Amino-4-[5-(4-chloro-3-methanesulfonyl-phenyl)-4-methyl-thiazol-2-ylcarbamoyl]-butyric acid cyclopentyl ester], the “Ratio IC50 WB/enzyme (PI 3-Kinase)” value in series [2] stood at 0.15.
Consider `Cc1nc(NC(=O)CC[C@H](N)C(=O)OC(C)(C)C)sc1-c1ccc(Cl)c(S(C)(=O)=O)c1` [Compound (23), (S)-2-Amino-4-[5-(4-chloro-3-methanesulfonyl-phenyl)-4-methyl-thiazol-2-ylcarbamoyl]-butyric acid tert-butyl ester], for which the “Ratio IC50 WB/enzyme (PI 3-Kinase)” value in series [2] came to 0.75.
With `COc1cc(NCc2cnc3nc(N)nc(N)c3c2C)cc(OC)c1OC` [drawing 10], the “Ratio IC50 cell/enzyme (U937), Table 2” value in the series on U937 cells (U937 cell IC50 / DHFR enzyme IC50) came out at 220. Moreover, the “Ratio IC50 Cell/enzyme (HCT116), Table 2” value in the series on HCT 116 cells is 170.

For orientation: IC50 means the concentration at which inhibition is half-maximal.
